{
  "source": "patent US20120208744A1",
  "about": "“ANTI-MICROBIAL AGENTS AND COMPOSITIONS AND METHODS OF PRODUCTION AND USE THEREOF” (The Penn State Research Foundation, priority 2011, published 2012)",
  "molecules": {"B1": {"name": "ExbD M116C: ExbD cysteine substitution M116C (pKP1024) (protein)", "chain": "MAMHLNENLDDNGEMHDINVTPFIDVMLVLLIIFMVAAPLAIVDVKVNLPASTSTPQPRPEKPVYLSVKADNSMFIGNDPVTDETMITALNALTEGKKDITIFFRADKTVDYETLCKVMDTLHQAGYLKIGLVGEETAKAK"}, "B2": {"name": "ExbD: wild-type E. coli ExbD protein, plasmid-encoded (pKP1194, exbD in pBAD24) (protein, listed as Escherichia coli)", "chain": "MAMHLNENLDDNGEMHDINVTPFIDVMLVLLIIFMVAAPLAIVDVKVNLPASTSTPQPRPEKPVYLSVKADNSMFIGNDPVTDETMITALNALTEGKKDITIFFRADKTVDYETLMKVMDTLHQAGYLKIGLVGEETAKAK"}},
  "assay_type_in_all_cases": "cell-based, Escherichia coli",
  "key": {"[1]": {"tested_on": "ferrichrome-mediated iron transport", "assay": "[55Fe]-ferrichrome uptake, ExbD cys substitutions, with or without CuoP treatment", "protocol": "Since CuoP treatment catalyzed almost 100% dimer formation for some of the cys substitutions, attempts were made to determine activity of the dimeric form. […] The amount of CuoP was reduced 10-fold to 0.03 mM and cells had to be suspended in fully supplemented M9 medium as described in Experimental Procedures.\nActivity assays. Initial rates of [^55Fe]-ferrichrome uptake were determined. For assays where cultures were treated with copper-(1,10-phenanthroline)3, harvested cells were pelleted, resuspended in 1×M9 supplemented as described above (no sodium propionate added), and treated with an equal volume 0.06 mM CuoP ([final] 0.03 mM) or 0.5 mM sodium phosphate buffer, pH 7.4 (buffer only) for 5 min, at 37° C. with aeration. Cells were pelleted, and the standard iron transport protocol was followed starting with resuspension in the assay medium.\nIn all assays the CuoP solution was removed and assays carried out in identical media, but the medium present during the 5 min CuoP treatment was important and differentially affected activity of a wild-type strain."}, "[2]": {"tested_on": "ferrichrome-mediated iron transport", "assay": "[55Fe]-ferrichrome uptake, ExbD cys substitutions, with or without CuoP treatment", "conditions": "0.03 mM CuoP, cells in unsupplemented 1xM9"}, "[3]": {"tested_on": "TonB", "assay": "Proteinase K accessibility assay in spheroplasts", "conditions": "wild-type W3110 spheroplasts; pmf collapsed; 60 μM CCCP or 10 mM DNP", "description": "Proteinase K accessibility assays. For reversibility assays, spheroplasts were generated from wild-type cells (W3110) and treated with CCCP to collapse pmf. […] Samples were harvested and treated with proteinase K or left untreated. […] To re-establish pmf for the remaining sample, the proteinase K untreated, CCCP-treated spheroplasts were subsequently pelleted, washed, and resuspended in buffer without CCCP. These washed spheroplasts were divided in half. One sample was re-treated with CCCP, and one was treated with solvent only (DMSO). Both were then treated with proteinase K. As a control, whole cells were also treated with proteinase K or left untreated. All manipulations occurred at 4° C.\nFor standard assays, spheroplasts were prepared and treated with proteinase K as described previously (Larsen et al, 1999, Mol. Microbiol. 31, 1809-1824). The effect of protonophores was examined after treatment of spheroplasts with 60 μM carbonylcyanide-m-chlorophenylhydrazone (CCCP) or 10 mM DNP compared to an equal volume of solvent only, dimethyl sulfoxide (DMSO). After limited proteolysis, TCA precipitated samples were visualized on immunblots of 11% or 15% SDS polyacrylamide gels with TonB-specific monoclonal antibodies or ExbD-specific polyclonal antibodies, respectively. All manipulations occurred at 4° C."}, "[4]": {"tested_on": "TonB-ExbD complex", "assay": "Formaldehyde crosslinking in spheroplasts", "conditions": "CCCP-treated W3110 spheroplasts, 60 μM", "protocol": "Formaldehyde crosslinking in spheroplasts. Spheroplasts were prepared as above for standard assays and treated with DMSO solvent or 60 μM CCCP. A CCCP-treated sample was also treated with proteinase K for 15 min as described above. For formaldehyde crosslinking, spheroplasts were pelleted and resuspended in 100 mM sodium phosphate buffer, pH 6.8 containing 0.25M sucrose and 2 mM MgSO4. For CCCP-treated spheroplasts, CCCP was maintained in the crosslinking buffer. Samples were treated with 1% monomeric paraformaldehyde (inverting to mix) for 15 min at room temperature. Pellets were solubilized at 60° C. in Laemmli sample buffer."}, "[5]": {"tested_on": "55Fe-ferrichrome transport", "assay": "Transport of 55Fe-loaded ferrichrome (ExbD deletion variants)", "protocol": "For assays in 1×M9, 37 μM Fe (proteinase K accessibility, [^55Fe]-ferrichrome uptake, formaldehyde crosslinking, and sucrose density gradient fractionation), the following percentages of arabinose were added at subculture to induce expression of ExbD variants near native levels of ExbD: pKP660=no inducer, pKP761=0.0008%, pKP760=0.0008%, pKP759=0.3% glucose (to repress basal levels of overexpression), pKP758=0.002% glucose (to repress basal levels of overexpression), pKP762=0.0006%, pKP757=0.0007%, pKP756=0.006%, pKP755=0.008%, pKP754=0.15%, pKP753=0.18%, pKP752=0.2%, pKP763=0.18%, pKP764=0.2%, pKP724=0.006%.\nActivity assays: Spot titer assays were performed. Initial rates of [^55Fe]-ferrichrome uptake were determined."}},
  "data": [
    {"molecule": "copper-(1,10-phenanthroline)3 [CuoP, reference compound]", "values": [
      {"measurement": "effect on iron transport activity of a wild-type strain", "setting": "[1]; 0.03 mM CuoP in supplemented 1xM9", "value": "did not inhibit activity"},
      {"measurement": "iron transport of a wild-type strain remaining after CuoP treatment", "setting": "[2]", "value": "about 25%"}
    ]},
    {"molecule": "O=[N+]([O-])c1ccc(O)c([N+](=O)[O-])c1", "note": "[DNP]", "values": [
      {"measurement": "TonB conformation (proteinase K sensitivity) after protonophore treatment", "setting": "[3]", "value": "Identical results"}
    ]},
    {"molecule": "N#CC(C#N)=NNc1cccc(Cl)c1", "note": "[CCCP, carbonylcyanide-m-chlorophenylhydrazone]", "values": [
      {"measurement": "TonB conformation (proteinase K sensitivity) after protonophore treatment", "setting": "[3]", "value": "detection of the previously observed proteinase K resistant conformation of TonB"},
      {"measurement": "TonB-ExbD formaldehyde crosslinked complex", "setting": "[4]", "value": "not detected"}
    ]},
    {"molecule": "B1", "values": [
      {"measurement": "activity: iron transport relative to wild-type ExbD", "setting": "[1]; CuoP-treated (0.03 mM, 5 min, supplemented M9)", "value": 20, "unit": "%"},
      {"measurement": "activity: iron transport relative to wild-type ExbD", "setting": "[1]; buffer only treated samples", "value": "about 90%"}
    ]},
    {"molecule": "B2", "values": [
      {"measurement": "Initial Rate of Transport", "setting": "[5]; 55Fe-loaded ferrichrome, plasmid-encoded ExbD variant in strain KP1522", "value": "672.2 ± 15.97"},
      {"measurement": "% Wild-type Activity", "setting": "[5]; initial rate of variant strain divided by initial rate of wild-type strain x 100, strain KP1522", "value": 100, "unit": "%"}
    ]}
  ]
}
